This passage reports melting point results from patent US20040192686A1, “Benzoazine mono-N-oxides and benzoazine 1,4 dioxides and compositions therefrom for the therapeutic use in cancer treatments” (Auckland Uniservices Limited, priority 2003, published 2004).

Where a name gives a salt, the structure may show the parent alone.

Broadly, the melting point is the temperature, or range, at which the solid turns liquid. `COc1ccc(-c2nc3ccccc3[n+]([O-])n2)cc1` [Compound 58, 3-(4-Methoxyphenyl)-1,2,4-benzotriazine 1-oxide] gave a melting point of 168 to 170 °C. As for `CC(C)(C)c1ccc2c(c1)nc(NCCN1CCCCC1)n[n+]2[O-]` [Compound 158, 6-tert-Butyl-N-[2-(1-piperidinyl)ethyl]-1,2,4-benzotriazin-3-amine 1-Oxide], the figure is 145 to 148 °C. As for `Cc1ccc2c(c1)nc(NCCN1C(C)CCCC1C)n[n+]2[O-]` (stereo not drawn) [Compound 78, N-[2-(2,6-Dimethyl-1-piperidinyl)ethyl]-6-methyl-1,2,4-benzotriazin-3-amine 1-oxide], the figure is 162 to 165 °C; as for `Nc1nc2ccc(F)cc2[n+]([O-])n1` [Compound 3k, 7-Fluoro-1,2,4-benzotriazin-3-amin 1-oxide], 280 to 290 °C (dec.). The same measure for `COc1ccc2c(c1)nc(Cl)n[n+]2[O-]` [Compound 83, 3-Chloro-6-methoxy-1,2,4-benzotriazine 1-oxide]: 196 to 199 °C; for `Nc1nc2c([N+](=O)[O-])cccc2[n+]([O-])n1` [Compound 3ac, 5-Nitro-1,2,4-benzotriazin-3-amine-1-oxide]: 269 to 272 °C; for `CSc1ccc2c(c1)nc(N)n[n+]2[O-]` [Compound 3w, 6-(Methylsulfanyl)-1,2,4-benzotriazin-3-amine 1-oxide]: 248 to 250 °C.

In the case of `COc1ccc2c(c1)nc(NCCN1CCOCC1)n[n+]2[O-]` [Compound 86, 6-Methoxy-N-[2-(4-morpholinyl)ethyl]-1,2,4-benzotriazin-3-amine 1-oxide], the melting point lay in the range of 186 to 188 °C. As to `CN(C)CCCc1nc2ccccc2[n+]([O-])n1.Cl`, the melting point is 228 to 230 °C. As for `Cl.[O-][n+]1nc(CCCN2CCCCC2)nc2ccccc21`, the figure is 151 to 153 °C. As for `Nc1nc2c(F)cccc2[n+]([O-])n1` [Compound 3ab, 5-Fluoro-1,2,4-benzotriazin-3-amine 1-oxide], the figure is 252 to 256 °C; as for `Nc1nc2cccc(C(F)(F)F)c2[n+]([O-])n1` [Compound 3e, 8-Trifluoromethyl-1,2,4-benzotriazin-3-amine 1-oxid], 280 to 286 °C (dec.); as for `COc1ccc2nc(NCCN(C)C)n[n+]([O-])c2c1` (as salt: hydrochloride) [Compound 92, N^1-(7-Methoxy-1-oxido-1,2,4-benzotriazin-3-yl)-N^2,N^2-dimethyl-1,2-ethanediamine], 231 to 235 °C. As for `Cc1ccc2c(c1)nc(Cl)n[n+]2[O-]` [Compound 73, 3-Chloro-6-methyl-1,2,4-benzotriazine 1-oxide], the figure is 156 to 158 °C. With `Nc1nc2c(Cl)cccc2[n+]([O-])n1` [Compound 3aa, 5-Chloro-1,2,4-benzotriazin-3-amine 1-oxide], the melting point lay in the range of 251 to 254 °C. `[O-][n+]1nc(-c2ccccc2)nc2ccccc21` [Compound 57, 3-Phenyl-1,2,4-benzotriazine 1-oxide] yielded a melting point of 125 to 127 °C.

As for `COc1cc2nc(NCCN(C)C)n[n+]([O-])c2cc1C` [Compound 114, N^1-(6-Methoxy-7-methyl-1-oxido-1,2,4-benzotriazin-3-yl)-N^2,N^2-dimethyl-1,2-ethanediamine], the melting point was 167 to 169 °C. `Cc1ccc2c(c1)nc(CCO)n[n+]2[O-]` [Compound 81, 2-(6-Methyl-1-oxido-1,2,4-benzotriazin-3-yl)ethanol]: the melting point lay in the range of 121 to 123 °C. As for `Cc1cccc2nc(NCCN3C(C)CCCC3C)n[n+]([O-])c12` (stereo not drawn) [Compound 164, N-[2-(2,6-Dimethyl-1-piperidinyl)ethyl]-8-methyl-1,2,4-benzotriazin-3-amine 1-Oxide], the figure is 169 to 171 °C; as for `COc1cccc2nc(N)n[n+]([O-])c12` (hydrate or solvate) [Compound 3a, 8-Methoxy-1,2,4-benzotriazin-3-amine 1-oxid], 235 to 239 °C; as for `Cl.[O-][n+]1nc(CCN2CCOCC2)nc2ccccc21`, 213 to 215 °C.

On to `COCCc1cccc(Nc2nc3ccccc3[n+]([O-])n2)c1` [Compound 49, N-[3-(2-Methoxyethyl)phenyl]-1,2,4-benzotriazin-3-amine 1-oxide], for which the melting point was in the range of 122 to 124 °C. Molecule `Cc1ccc2nc(NCCN3CCCCC3)n[n+]([O-])c2c1` [Compound 89, 7-Methyl-N-[2-(1-piperidinyl)ethyl]-1,2,4-benzotriazin-3-amine 1-oxide] registered a melting point of 166 to 168 °C.

Take `CSc1cccc2c1nc(N)n[n+]2[O-]` [Compound 3ad, 5-Methylsulfanyl-1,2,4-benzotriazin-3-amine 1-oxide]: the melting point lay within 248 to 252 °C.

Molecule `CC(C)c1ccc2c(c1)nc(NCCN1CCCCC1)n[n+]2[O-]` [Compound 150, 6-Isopropyl-N-[2-(1-piperidinyl)ethyl]-1,2,4-benzotriazin-3-amine 1-Oxide] had a melting point of 124 to 127 °C. The same measure for `C=Cc1nc2ccccc2[n+]([O-])n1` [Compound 59, 3-Vinyl-1,2,4-benzotriazine 1-oxide]: 85 to 86 °C; for `CCCN(CCC)CCNc1nc2cccc(C)c2[n+]([O-])n1` [Compound 165, N^1-(8-Methyl-1-oxido-1,2,4-benzotriazin-3-yl)-N^2,N^2-dipropyl-1,2-ethanediamine]: 91 to 93 °C. The same measure for `[O-][n+]1nc(CC2CO2)nc2ccccc21` (stereo not drawn) [Compound 62, 3-(2-Oxiranylmethyl)-1,2,4-benzotriazine 1-oxide]: 105 to 107 °C.

`CCc1nc2ccc(OCCOC)cc2[n+]([O-])n1` [Compound 97, 3-Ethyl-7-(2-methoxyethoxy)-1,2,4-benzotriazine 1-oxid] showed a melting point of 95 to 97 °C.

The molecule `COc1ccc2c(c1)nc(NCCN1C(C)CCCC1C)n[n+]2[O-]` (stereo not drawn) [Compound 141, N-[2-(2,6-Dimethyl-1-piperidinyl)ethyl]-6-methoxy-1,2,4-benzotriazin-3-amine 1-oxide] returned a melting point of 170 to 171 °C.

As for `CCN(CC)CCNc1nc2cc(C)c(C)cc2[n+]([O-])n1` [Compound 166, N^1-(6,7-Dimethyl-1-oxido-1,2,4-benzotriazin-3-yl)-N^2,N^2-diethyl-1,2-ethanediamine], the melting point lay within 130 to 132 °C. The same measure for `CCc1nc2ccc(OCCN3CCOCC3)cc2[n+]([O-])n1` [Compound 99, 3-Ethyl-7-[2-(4-morpholinyl)ethoxy]-1,2,4-benzotriazine 1-oxide]: 99 to 101 °C; for `Cc1cccc2c1nc(N)n[n+]2[O-]` [Compound 3z, 5-Methyl-1,2,4-benzotriazin-3-amine 1-oxide]: 253 to 255 °C; for `COc1cc2c(cc1C)nc(NCCN1CCCCC1)n[n+]2[O-]` [Compound 119, 7-Methoxy-6-methyl-N-[2-(1-piperidinyl)ethyl]-1,2,4-benzotriazin-3-amine 1-oxide]: 195 to 197 °C. The same measure for `Cc1ccc2nc(N)n[n+]([O-])c2c1` [Compound 3j, 7-Methyl-1,2,4-benzotriazin-3-amine 1-oxide]: 270 °C (dec.).

Molecule `[N-]=[N+]=NCCCNc1nc2ccccc2[n+]([O-])n1` [Compound 28, N-(3-Azidopropyl)-1,2,4-benzotriazin-3-amine 1-oxide] displayed a melting point of 128 to 130 °C. As for `CC(C)(C)ONC(=O)CCOCCNc1nc2ccccc2[n+]([O-])n1` [Compound 35, 3-{[2-(2-tert-Butyloxycarbamoylethoxy)ethyl]amino}-1,2,4-benzotriazine 1-oxide], the figure is 134 to 137 °C.

For `Cc1cc(C)c2c(c1)nc(Cl)n[n+]2[O-]` [Compound 108, 3-Chloro-6,8-dimethyl-1,2,4-benzotriazine 1-oxide], the melting point was in the range of 120 to 122 °C. The same measure for `CCN(CC)CCNc1nc2cccc(C)c2[n+]([O-])n1` [Compound 162, N^1,N^1-Diethyl-N^2-(8-methyl-1-oxido-1,2,4-benzotriazin-3-yl)-1,2-ethanediamine]: 89 to 91 °C. As for `Nc1nc2ccc([N+](=O)[O-])cc2[n+]([O-])n1` [Compound 3p, 7-Nitro-1,2,4-benzotriazin-3-amine 1-oxide], the figure is 269 to 272 °C. As for `Cc1cccc2nc(Cl)n[n+]([O-])c12` [Compound 100, 3-Chloro-8-methyl-1,2,4-benzotriazine 1-oxide], the figure is 170 to 173 °C. The molecule `Cc1ccc2c(c1)nc(NCCN(C)C)n[n+]2[O-]` [Compound 76, N^1,N^1-Dimethyl-N^2-(6-methyl-1-oxido-1,2,4-benzotriazin-3-yl)-1,2-ethanediamine] displayed a melting point of 143 to 145 °C. The same measure for `CC(C)(C)OC(=O)NCCCNc1nc2ccccc2[n+]([O-])n1` [Compound 29, tert-Butyl 3-[(1-oxido-1,2,4-benzotriazin-3-yl)amino]propylcarbamate]: 145 to 147 °C. The same measure for `Cc1cc2nc(NCCNC(=O)OC(C)(C)C)n[n+]([O-])c2cc1C` [Compound 105, tert-Butyl 2-[(6,7-dimethyl-1-oxido-1,2,4-benzotriazin-3-yl)amino]ethylcarbamate]: 226 to 228 °C; for `CCCN(CCC)CCNc1nc2cc(C)ccc2[n+]([O-])n1` [Compound 140, N^1-(6-Methyl-1-oxido-1,2,4-benzotriazin-3-yl)-N^2,N^2-dipropyl-1,2-ethanediamine]: 88 to 90 °C; for `Cc1cc(C)c2c(c1)nc(NCCN(C)C)n[n+]2[O-]` [Compound 109, N^1-(6,8-Dimethyl-1-oxido-1,2,4-benzotriazin-3-yl)-N^2,N^2-dimethyl-1,2-ethanediamine]: 176 to 179 °C. The same measure for `Nc1nc2ccccc2n[n+]1[O-]` [Compound 126, 1,2,4-Benzotriazin-3-amine 2-oxide]: 175 to 180 °C; for `CN(C)CCc1nc2ccccc2[n+]([O-])n1`: 47 to 49 °C.
